Data: patent US9415047B2, “Use of benzo five-membered nitrogen heterocyclic piperazine or piperidine derivatives” (Liaoning Emmy Biological Pharmaceutical Co., Ltd., priority 2012, dated 2016)

How the values were obtained:
[1] = test system: AD constricted rabbit aorta; assay: Relaxing effects on vascular smooth muscle constricted by adrenaline hydrochloride (AD) in vitro; conditions: relaxation of rabbit aorta constricted by adrenaline (10^−5 mol/L), mean±SEM, n=5; for EC50: Oryctolagus cuniculus
Procedure: (§1) Adrenaline hydrochloride (AD) (10^−5 mol/L) was added into a bath tube to induce constriction, when maximal constriction was achieved, the sample was completely flushed, K-H solution was changed for every 20 min. Contents in the tube was balanced for 60 min, when baseline recovered to be stable, the convulsant was added at the same concentration to induce constriction. When the later maximal constriction response was basically consistent with the former one, the prepared compound solutions were subsequently added, including compound II-1 to II-60 solutions (1×10^−8-1×10^−3 mol/L), compound II-84 to II-123 solutions (1×10^−10-1×10^−2 mol/L) and compound II-124 to II-157 solutions (1×10^−10˜1×10^−3 mol/L), to record the waveforms. Relaxing percentage of the compound was used as Y axis, maximal relaxation response was 100%, negative logarithm of different concentration was used as X axis, to draw dose effect curve (expressed in mean±SEM ( ? ), n=5). Compounds II-2 and II-3 had the most obvious relaxing effects (FIG. 1 and FIG. 8).

[2] = test system: NA constricted rabbit aorta; assay: Relaxing effects on vascular smooth muscle constricted by noradrenaline (NA) in vitro; conditions: relaxation of rabbit aorta constricted by noradrenaline (10^−5 mol/L), mean±SEM, n=5; for EC50: Oryctolagus cuniculus
Procedure: as §1, with “noradrenaline bitartrate (NA) (10^−5 mol/L)” for “the convulsant”, “added” for “added at the same concentration”, “compound” for “compound II-1 to II-60 solutions (1×10^−8-1×10^−3 mol/L), compound”, “mol/L),” for “mol/L) and”, “(1×10^−10-1×10^−3” for “(1×10^−10˜1×10^−3”, “n=5).” for “n=5). Compounds II-2 and II-3 had the most obvious relaxing effects (FIG. 1 and FIG. 8).”

[3] = test system: high kalium concentration constricted rabbit aorta; assay: Relaxing effects on vascular smooth muscle constricted by high kalium concentration in vitro; conditions: relaxation of rabbit aorta constricted by high kalium solution (K+ 60 mmol/L), mean±SEM, n=5; for EC50: Oryctolagus cuniculus
Procedure: Adrenaline hydrochloride (AD) (10^−5 mol/L) was added into a bath tube to induce constriction, when maximal constriction was achieved, the sample was completely flushed, K-H solution was changed for every 20 min. Contents in the tube was balanced for 60 min, when baseline recovered to be stable, K-H solution in the bath tube was replaced with high kalium concentration solution to induce constriction. When the later maximal constriction response was basically consistent with the former one, the prepared compound solutions were subsequently added, including compound II-1 to II-60 solutions (1×10^−8-1×10^−3 mol/L), compound II-84 to II-123 solutions (1×10^−10-1×10^−2 mol/L) and compound II-124 to II-157 solutions (1×10^−10-1×10^−3 mol/L), to record the waveforms. Relaxing percentage of the compound was used as Y axis, maximal relaxation response was 100%, negative logarithm of different concentration was used as X axis, to draw dose effect curve (expressed in mean±SEM ( ? ), n=5). Compounds II-2 and II-3 had the most obvious relaxing effects (FIG. 2 and FIG. 9).

SMILES	EC50 [1]	EC50 [2]	EC50 [3]	−logEC50 [2]	−logEC50 [3]	−logEC50 [1]
c1coc(C2CCN(CCCCn3cnc4ccccc43)CC2)c1 [II-118, N-(4-(1H-benzimidazoyl-1-yl)butyl)-4-(2-furyl)piperidine]	–	58.9 µM	–	–	3.53 ± 0.03	4.43 ± 0.05
c1ccc2c(c1)nnn2CCCCN1CCC(C2CCCCC2)CC1 [II-121, N-(4-(1H-benzotriazole-1-yl)butyl)-4-(4-cyclohexyl)piperidine]	40.7 µM	36.3 µM	–	–	3.14 ± 0.05	–
COc1ccc2c(C3CCN(CCCCn4nnc5ccc(C#N)cc54)CC3)noc2c1 [II-97, N-(4-(6-cyanobenzotriazolyl)butyl)-4-(3-(6-methoxylbenzisoxazolyl))piperidine]	–	8.13 µM	–	–	3.23 ± 0.04	5.23 ± 0.06
COc1ccc2nnn(CCCCN3CCC(c4cccc(C(F)(F)F)c4)CC3)c2c1 [II-114, N-(4-(6-methoxyl-1H-benzotriazole-1-yl)butyl)-4-(3-trifluoromethylphenyl)piperidine]	–	17 µM	–	–	3.56 ± 0.03	4.86 ± 0.03
N#Cc1ccc2cnn(CCCCN3CCC(c4noc5cc(F)ccc45)CC3)c2c1 [II-104, N-(4-(6-cyanobenzopyrazol)butyl)-4-(3-(6-fluorobenzisoxazolyl))piperidine]	9.55 µM	9.55 µM	380 µM	–	–	–
N#Cc1ccc2nnn(CCCCN3CCC(c4cccc(C(F)(F)F)c4)CC3)c2c1 [II-115, N-(4-(6-cyano-1H-benzotriazole-1-yl)butyl)-4-(3-trifluoromethylphenyl)piperidine]	–	29.5 µM	–	–	3.23 ± 0.02	4.79 ± 0.02
Fc1ccc2c(C3CCN(CCCn4ncc5ccccc54)CC3)noc2c1 [II-103, N-(3-(1-benzopyrazol)propyl)-4-(3-(6-fluorobenzisoxazolyl))piperidine]	6.17 µM	7.76 µM	617 µM	–	–	–
FC(F)(F)c1cccc(C2CCN(CCCCn3nnc4ccccc43)CC2)c1 [II-110, N-(4-(1H-benzotriazole-1-yl)butyl)-4-(3-trifluoromethylphenyl)piperidine]	–	0.355 µM	–	–	5.12 ± 0.03	6.36 ± 0.03
COc1ccc2nnn(CCCN3CCC(c4noc5cc(F)ccc45)CC3)c2c1 [II-91, N-(3-(6-methoxyl-1H-benzotriazole-1-yl)propyl)-4-(3-(6-fluorobenzisoxazolyl))piperidine]	–	4.9 µM	–	–	4.02 ± 0.05	5.23 ± 0.05
Clc1cccc(C2CCN(CCCCn3cnc4ccccc43)CC2)c1 [II-107, N-(4-(1H-benzimidazoyl-1-yl)butyl)-4-(3-chlorophenyl)piperidine]	–	7.76 µM	–	–	3.69 ± 0.02	5.03 ± 0.02
c1ccc2c(c1)nnn2CCCN1CCC(c2noc3ccccc23)CC1 [II-84, N-(3-(1H-benzotriazole-1-yl)propyl)-4-(3-benzisoxazolyl)piperidine]	0.589 µM	0.676 µM	53.7 µM	–	–	–
c1ccc2c(C3CCN(CCCCn4nnc5ccccc54)CC3)cccc2c1 [II-156, N-(4-(1H-benzotriazole-1-yl)butyl)-4-(1-naphthyl)piperidine]	–	–	–	4.34 ± 0.04	–	4.22 ± 0.06
Clc1cccc(C2CCN(CCCCn3cnc4ccccc43)CC2)c1 [II-124, N-(4-(1H-benzimidazoyl-1-yl)butyl)-4-(3-chlorophenyl)piperidine]	9.33 µM	–	–	5.11 ± 0.02	–	–
c1cnc(C2CCN(CCCCn3cnc4ccccc43)CC2)nc1 [II-154, N-(4-(1H-benzimidazoyl-1-yl)butyl)-4-(2-pyrimidinyl)piperidine]	–	–	–	4.52 ± 0.04	–	4.72 ± 0.03
c1ccc2nc(C3CCN(CCCCn4nnc5ccccc54)CC3)cnc2c1 [II-157, N-(4-(1H-benzotriazole-1-yl)butyl)-4-(2-quinoxalinyl)piperidine]	–	–	–	4.53 ± 0.05	–	4.83 ± 0.05

Continued, in another order:

EC50 [1]	EC50 [2]	EC50 [3]	SMILES	−logEC50 [2]	−logEC50 [3]	−logEC50 [1]
5.89 µM	–	–	COc1ccc2nnn(CCCN3CCC(c4noc5cc(F)ccc45)CC3)c2c1 [II-140, N-(3-(6-methoxyl-1H-benzotriazole-1-yl)propyl)-4-(3-(6-fluorobenzisoxazolyl))piperidine]	5.31 ± 0.05	5.02 ± 0.05	–
16.2 µM	–	–	N#Cc1ccc2nnn(CCCCN3CCC(c4cccc(C(F)(F)F)c4)CC3)c2c1 [II-132, N-(4-(6-cyano-1H-benzotriazole-1-yl)butyl)-4-(3-trifluoromethylphenyl)piperidine]	4.53 ± 0.02	–	–
3.8 µM	6.03 µM	–	Fc1ccc2c(C3CCN(CCCn4nnc5ccc(Cl)cc54)CC3)noc2c1 [II-138, N-(3-(6-chloro-1H-benzotriazole-1-yl)propyl)-4-(3-(6-fluorobenzisoxazolyl))piperidine]	–	–	–
4.9 µM	–	–	Fc1ccc2nnn(CCCCN3CCC(c4cccc(C(F)(F)F)c4)CC3)c2c1 [II-130, N-(4-(6-fluoro-1H-benzotriazole-1-yl)butyl)-4-(3-trifluoromethylphenyl)piperidine]	5.21 ± 0.04	–	–
4.9 µM	–	–	FC(F)(F)c1cccc(C2CCN(CCCOn3cnc4ccccc43)CC2)c1 [II-134, N-(4-(1H-benzimidazole-1-yl)propoxyl)-4-(3-trifluoromethylphenyl)piperidine]	5.15 ± 0.06	–	–
13.8 µM	–	–	c1ccc2c(c1)ncn2CCCCN1CCC(c2ccncc2)CC1 [II-153, N-(4-(1H-benzimidazoyl-1-yl)butyl)-4-(4-pyridyl)piperidine]	4.66 ± 0.02	–	–
0.617 µM	–	–	FC(F)(F)c1cccc(C2CCN(CCCCn3cnc4ccccc43)CC2)c1 [II-126, N-(4-(1H-benzimidazoyl-1-yl)butyl)-4-(3-trifluoromethylphenyl)piperidine]	6.32 ± 0.04	–	–
0.776 µM	–	–	COc1ccc2nnn(CCCN3CCC(c4noc5ccccc45)CC3)c2c1 [II-142, N-(3-(6-methoxylbenzotriazolyl)propyl)-4-(3-benzisoxazolyl)piperidine]	6.07 ± 0.04	–	–
4.57 µM	9.12 µM	–	COc1ccc2c(C3CCN(CCCn4nnc5ccccc54)CC3)noc2c1 [II-136, N-(3-(1H-benzotriazole-1-yl)propyl)-4-(3-(6-methoxylbenzisoxazolyl))piperidine]	–	–	–
2.75 µM	–	–	O=Cc1ccc2nnn(CCCN3CCC(c4noc5cc(F)ccc45)CC3)c2c1 [II-141, N-(3-(6-formoxyl-1H-benzotriazole-1-yl)propyl)-4-(3-(6-fluorobenzisoxazolyl))piperidine]	5.73 ± 0.04	–	–
5.89 µM	–	–	COc1ccc2c(C3CCN(CCCCn4nnc5ccc(C#N)cc54)CC3)noc2c1 [II-146, N-(4-(6-cyanobenzotriazolyl)butyl)-4-(3-(6-methoxylbenzisoxazolyl))piperidine]	5.09 ± 0.04	–	–
2.45 µM	1.86 µM	–	Fc1ccc2c(C3CCN(CCCn4nnc5ccc(F)cc54)CC3)noc2c1 [II-137, N-(3-(6-fluoro-1H-benzotriazole-1-yl)propyl)-4-(3-(6-fluorobenzisoxazolyl))piperidine]	–	–	–
17.4 µM	–	–	COc1ccccc1C1CCN(CCCCn2cnc3ccccc32)CC1 [II-129, N-(4-(1H-benzimidazoyl-1-yl)butyl)-4-(2-methoxylphenyl)piperidine]	4.55 ± 0.03	–	–
2.75 µM	–	–	FC(F)(F)c1cccc(C2CCN(CCCOn3nnc4ccccc43)CC2)c1 [II-133, N-(4-(1H-benzotriazole-1-yl)propoxyl)-4-(3-trifluoromethylphenyl)piperidine]	5.36 ± 0.05	–	–
